In US9763957B2, “Autotaxin inhibitors” (Novartis AG, priority 2013, dated 2017) one finds IC50 data, which are given here for 27 molecules.

The target in this assay is Recombinant human ATX (Homo sapiens (Human), UniProt Q13822). The experiment in a line: ATX inhibition assay (choline release, Amplex Red fluorescence). The format is biochemical. The conditions noted are these: ATX 10 nM, LPC 18:1 10 μM, 37° C., 20 min pre-incubation; mean of n≧2. How it is done: Reagents—LPC (oleoyl (18:1)) was purchased from Avanti Polar Lipids (Alabaster, Ala.) and solubilized in methanol to 20 mM. Amplex Red was obtained from Invitrogen Life Technologies (Paisley, UK) and dissolved in DMSO to 10 mM. Choline oxidase and horseradish peroxidase (HRP) were obtained from Sigma Aldrich (Dorset, UK) and dissolved in HBSS to 20 U/ml and 200 U/ml respectively. All reagents were stored at −20° C. in single use aliquots. All experimental measurements were performed in assay buffer made up immediately prior to use (HBSS, 0.01% BSA essentially fatty acid free).
PerkinElmer EnVision (Fluorescence Intensity/Absorbance Monochromator) or Tecan Infinite 200 PRO series plate reader was used to detect change in fluorescent intensity.
Assessing ATX inhibition—ATX activity was determined by measurement of released choline in reactions containing ATX (10 nM), choline oxidase (0.1 U/ml), HRP (100 U/ml), amplex red (50 μM) and LPC 18:1 (10 μM). Compounds of the invention were prepared as 10 point serial dilutions from 1 μM in duplicate and pre-incubated with ATX at 37° C. for 20 minutes prior to the addition of remaining reagents. The liberated choline was measured from changes in fluorescence intensity (λex 530 nm, λem 590 nm) of the product resurofin at 37° C. every 2 minutes over a 40-minute period. ATX activity was measured as a slope of the linear portion of the progress curve, typically between 14 to 24 minutes.
Data analysis—Slope data was exported to Graphpad prism (Graphpad software, San Diego, Calif.) where data was fitted to equation 1. Y=Bottom+(Top-Bottom)/(1+10^((Log IC50−X)*HillSlope)) Equation 1: […]
What is called IC50 is the midpoint of a concentration-inhibition curve. As for `Cc1nnn(Cc2cc(Cl)ccc2/C=C/C(=O)N2CCC(O)C[C@@H]2C)n1` (single isomer, unassigned) [Example 50a, (E)-3-(4-chloro-2-((5-methyl-2H-tetrazol-2-yl)methyl)phenyl)-1-((2S, 4R or 4S)-4-hydroxy-2-methylpiperidin-1-yl)prop-2-en-1-one], the 50% inhibitory concentration (IC50) turned out to be 70 nM.

As for `Cc1nnn(Cc2cc(Cl)ccc2/C=C/C(=O)N2CCC(C(O)c3ccc(Cl)cc3)CC2)n1` (racemic) [Example 66, rac-(E)-3-(4-Chloro-2-((5-methyl-2H-tetrazol-2-yl)methyl)phenyl)-1-(4-((4-chlorophenyl)(hydroxy)methyl)piperidin-1-yl)prop-2-en-1-one], the IC50 amounted to 6 nM.

As for `COC(=O)C1CCN(C(=O)/C=C/c2ccc(Cl)cc2Cn2nnc(C)n2)CC1` [Example 128, (E)-Methyl 1-(3-(4-chloro-2-((5-methyl-2H-tetrazol-2-yl)methyl)phenyl)acryloyl)piperidine-4-carboxylate], the IC50 amounted to 28 nM.

Consider `Cc1nnn(Cc2cc(Cl)ccc2/C=C/C(=O)N2CCCC(O)C2)n1` (stereo not drawn) [Example 49.7, (E)-3-(4-Chloro-2-((5-methyl-2H-tetrazol-2-yl)methyl)phenyl)-1-(3-hydroxypiperidin-1-yl)prop-2-en-1-one], for which the concentration for half-maximal inhibition (IC50) worked out at 151 nM.

As to `Cc1nnn(Cc2cc(C(F)(F)F)ccc2/C=C/C(=O)N2CCOCC2C(F)(F)F)n1` (stereo not drawn) [Example 142, (E)-3-(2-((5-Methyl-2H-tetrazol-2-yl)methyl)-4-(trifluoromethyl)phenyl)-1-(3-(trifluoromethyl)morpholino)prop-2-en-1-one], the half-maximal inhibitory concentration (IC50) stood at 12 nM.

As to `Cc1nnn(Cc2cc(Cl)ccc2/C=C/C(=O)N2CCC(F)C2)n1` (stereo not drawn) [Example 49.5, (E)-3-(4-Chloro-2-((5-methyl-2H-tetrazol-2-yl)methyl)phenyl)-1-(3-fluoropyrrolidin-1-yl)prop-2-en-1-one], the IC50 stood at 320 nM.

Regarding `Cc1nnn(Cc2cc(C(F)(F)F)ccc2/C=C/C(=O)N2CCN(Cc3noc(C)n3)CC2)n1` [Example 93, (E)-1-(4-((5-Methyl-1,2,4-oxadiazol-3-yl)methyl)piperazin-1-yl)-3-(2-((5-methyl-2H-tetrazol-2-yl)methyl)-4-(trifluoromethyl)phenyl)prop-2-en-1-one], the IC50 amounted to 10 nM.

Regarding `CC(=O)N1CCCN(C(=O)/C=C/c2ccc(Cl)cc2Cn2nnc(C)n2)CC1` [Example 49.26, (E)-1-(4-Acetyl-1,4-diazepan-1-yl)-3-(4-chloro-2-((5-methyl-2H-tetrazol-2-yl)methyl)phenyl)prop-2-en-1-one], the IC50 was 160 nM.

Consider `Cc1nnn(Cc2cc(Cl)ccc2/C=C/C(=O)N2CCN(c3ccn(C)n3)C[C@H]2C)n1` [Example 49.21, (R,E)-3-(4-Chloro-2-((5-methyl-2H-tetrazol-2-yl)methyl)phenyl)-1-(2-methyl-4-(1-methyl-1H-pyrazol-3-yl)piperazin-1-yl)prop-2-en-1-one], for which the half-inhibitory concentration (IC50) was found to be 16 nM.

As to `Cc1nnn(Cc2cc(C(F)(F)F)ccc2/C=C/C(=O)N2CCC(N(C)S(=O)(=O)c3ccc(F)cc3)CC2)n1` [Example 118, (E)-4-Fluoro-N-methyl-N-(1-(3-(2-((5-methyl-2H-tetrazol-2-yl)methyl)-4-(trifluoromethyl)phenyl)acryloyl)piperidin-4-yl)benzenesulfonamide], the IC50 came to 24 nM.

Consider `CNC(=O)[C@@H]1CC(F)(F)CN1C(=O)/C=C/c1ccc(C(F)(F)F)cc1Cn1nnc(C)n1` [Example 91, (S,E)-4,4-Difluoro-N-methyl-1-(3-(2-((5-methyl-2H-tetrazol-2-yl)methyl)-4-(trifluoromethyl)phenyl)acryloyl)pyrrolidine-2-carboxamide], for which the 50% inhibitory concentration (IC50) came to 160 nM.

In the case of `Cc1nnn(Cc2cc(OC(F)(F)F)ccc2/C=C/C(=O)N2CCC(Cc3nnc(C)o3)CC2)n1` [Example 56, (E)-1-(4-((5-Methyl-1,3,4-oxadiazol-2-yl)methyl)piperidin-1-yl)-3-(2-((5-methyl-2H-tetrazol-2-yl)methyl)-4-(trifluoromethoxy)phenyl)prop-2-en-1-one], the IC50 worked out at 12 nM.

For `Cc1nnn(Cc2cc(Cl)ccc2/C=C/C(=O)N2CC3CCC2CN3Cc2coc(C)n2)n1` (stereo not drawn) [Example 61, (E)-3-(4-Chloro-2-((5-methyl-2H-tetrazol-2-yl)methyl)phenyl)-1-(5-((2-methyloxazol-4-yl)methyl)-2,5-diazabicyclo[2.2.2]octan-2-yl)prop-2-en-1-one], the IC50 was 45 nM.

Regarding `Cc1nnn(Cc2cc(Cl)ccc2/C=C/C(=O)N2CCC(CCc3nnc(C)o3)CC2)n1` [Example 20, (E)-3-(4-Chloro-2-((5-methyl-2H-tetrazol-2-yl)methyl)phenyl)-1-(4-(2-(5-methyl-1,3,4-oxadiazol-2-yl)ethyl)piperidin-1-yl)prop-2-en-1-one], the concentration for half-maximal inhibition (IC50) was 163 nM.

For the molecule `Cc1nnn(Cc2cc(OC(F)(F)F)ccc2/C=C/C(=O)N2CCC(c3nnc(C)o3)CC2)n1` [Example 54, (E)-1-(4-(5-Methyl-1,3,4-oxadiazol-2-yl)piperidin-1-yl)-3-(2-((5-methyl-2H-tetrazol-2-yl)methyl)-4-(trifluoromethoxy)phenyl)prop-2-en-1-one], the IC50 was 8.9 nM.

In the case of `COc1ccc(/C=C/C(=O)N2CCC(Cc3nnc(C)o3)CC2)c(Cn2nnc(C)n2)c1` [Example 83, (E)-3-(4-Methoxy-2-((5-methyl-2H-tetrazol-2-yl)methyl)phenyl)-1-(4-((5-methyl-1,3,4-oxadiazol-2-yl)methyl)piperidin-1-yl)prop-2-en-1-one], the half-inhibitory concentration (IC50) was 846 nM.

Take `Cc1nnn(Cc2cc(Cl)ccc2/C=C/C(=O)N2CCC(Cn3cccn3)CC2)n1` [Example 49.11, (E)-1-(4-((1H-Pyrazol-1-yl)methyl)piperidin-1-yl)-3-(4-chloro-2-((5-methyl-2H-tetrazol-2-yl)methyl)phenyl)prop-2-en-1-one]: the IC50 amounted to 14 nM.

Take `Cc1nnn(Cc2cc(Cl)ccc2/C=C/C(=O)N2CC(Oc3ccc(F)cc3)C2)n1` [Example 130, (E)-3-(4-Chloro-2-((5-methyl-2H-tetrazol-2-yl)methyl)phenyl)-1-(3-(4-fluorophenoxy)azetidin-1-yl)prop-2-en-1-one]: the IC50 worked out at 170 nM.

As to `Cc1nnn(Cc2cc(C(F)(F)F)ccc2/C=C/C(=O)N2CCN(Cc3cnn(C)c3)CC2)n1` [Example 53, (E)-1-(4-((1-Methyl-1H-pyrazol-4-yl)methyl)piperazin-1-yl)-3-(2-((5-methyl-2H-tetrazol-2-yl)methyl)-4-(trifluoromethyl)phenyl)prop-2-en-1-one], the half-maximal inhibitory concentration (IC50) was determined as 2 nM.

In the case of `Cc1nnn(Cc2cc(C(F)(F)F)ccc2/C=C/C(=O)N2CCC(Cc3noc(C)n3)CC2)n1` [Example 71, (E)-1-(4-((5-Methyl-1,2,4-oxadiazol-3-yl)methyl)piperidin-1-yl)-3-(2-((5-methyl-2H-tetrazol-2-yl)methyl)-4-(trifluoromethyl)phenyl)prop-2-en-1-one], the 50% inhibitory concentration (IC50) stood at 6 nM.

On to `Cc1nnn(Cc2cc(Cl)ccc2/C=C/C(=O)N2CCC(OCC(=O)N3CCCCC3)CC2)n1` [Example 49.10, (E)-3-(4-Chloro-2-((5-methyl-2H-tetrazol-2-yl)methyl)phenyl)-1-(4-(2-oxo-2-(piperidin-1-yl)ethoxy)piperidin-1-yl)prop-2-en-1-one], for which the 50% inhibitory concentration (IC50) is 24 nM.

For the molecule `Cc1nnn(Cc2cc(Cl)ccc2/C=C/C(=O)N2CCN(Cc3coc(C)n3)C[C@H]2C)n1` [Example 62, (R,E)-3-(4-Chloro-2-((5-methyl-2H-tetrazol-2-yl)methyl)phenyl)-1-(2-methyl-4-((2-methyloxazol-4-yl)methyl)piperazin-1-yl)prop-2-en-1-one], the IC50 turned out to be 4.2 nM.

On to `Cc1nnn(Cc2cc(Cl)ccc2COC(=O)N2CCC(c3nnc(C)o3)CC2)n1` [Example 47, 4-Chloro-2-((5-methyl-2H-tetrazol-2-yl)methyl)benzyl 4-(5-methyl-1,3,4-oxadiazol-2-yl)piperidine-1-carboxylate], for which the IC50 turned out to be 442 nM.

For `Cc1nnn(Cc2cc(C(F)(F)F)ccc2/C=C/C(=O)N2CCC(C(=O)O)CC2)n1` [Example 51, (E)-1-(3-(2-((5-Methyl-2H-tetrazol-2-yl)methyl)-4-(trifluoromethyl)phenyl)acryloyl)piperidine-4-carboxylic acid], the IC50 worked out at 77 nM.

Consider `Cc1nnn(Cc2cc(Cl)ccc2/C=C/C(=O)N2CCN(C(=O)c3ccco3)CC2)n1` [Example 49.20, (E)-3-(4-Chloro-2-((5-methyl-2H-tetrazol-2-yl)methyl)phenyl)-1-(4-(furan-2-carbonyl)piperazin-1-yl)prop-2-en-1-one], for which the concentration for half-maximal inhibition (IC50) was 110 nM.

`Cc1nnn(Cc2cccc(F)c2/C=C/C(=O)N2CCC(Cc3nnc(C)o3)CC2)n1` [Example 44, (E)-3-(2-Fluoro-6-((5-methyl-2H-tetrazol-2-yl)methyl)phenyl)-1-(4-((5-methyl-1,3,4-oxadiazol-2-yl)methyl)piperidin-1-yl)prop-2-en-1-one]: the IC50 was 535 nM.

For `CC(=O)NC1CCN(C(=O)/C=C/c2ccc(Cl)cc2Cn2nnc(C)n2)CC1` [Example 125, (E)-N-(1-(3-(4-Chloro-2-((5-methyl-2H-tetrazol-2-yl)methyl)phenyl)acryloyl)piperidin-4-yl)acetamide], the IC50 came to 110 nM.
